Laboratory results from patent US8846666B2, “Oxathiazine derivatives which are substituted with benzyl or heteromethylene groups, method for producing them, their use as medicine and drug containing said derivatives and the use thereof” (Sanofi, priority 2011, dated 2014).

Target: human 11β-HSD1 microsome fraction (Homo sapiens, UniProt P28845)
Assay: Enzymatic 11Beta-HSD1 test (SPA-based detection)
Assay type: biochemical
Details: [1,2-3H]-cortisone, NADPH, 37° C. for 1 hour
Experimental: Enzymatic 11Beta-HSD1 Test:
To measure the activity of the compounds, an SPA-based detection method (Solly et al. 2005) was employed. First of all, 20 μl of the human 11β-HSD1 microsome fraction (0.2 μg of protein), prepared in 50 mM HEPES, 0.1% BSA (w/v), were applied to a plate with 384 wells. The test compounds (0.09 μl) were applied to the assay plate in 100% DMSO. The reaction was started by addition of 20 μl of [1,2-^3H]-cortisone (0.1 μCi/[…]) in assay buffer comprising 25 mM HEPES, 100 mM KCl, 5 mM NaCl, 2 mM MgCl2 and 0.25 mM NADPH. The plate was agitated at 37° C. for 1 hour. At the same time, a stop solution comprising 20 mg/ml SPA-PVT beads, 1.6 mg/ml monoclonal cortisol antibody and 0.01 mM SSR110887 (inhibitor from the Biovitrium patent) in 50 mM HEPES, 1 M NaCl and 1 M KCl was stirred at room temperature. To stop the reaction, 25 μl of the stop solution were added to each well. The plate was agitated gently at room temperature for 1 further hour and then centrifuged at 500 gav for 1 min, in order that the SPA beads could settle out. The plate was then read in a Wallac-1450-Microbeta unit with a standard SPA program (counting time 1 min/well). The comparative compound was glycyrrhetinic acid.
Protein and radioactive substrate were dispensed with a Biomek FX unit (Beckman Coulter) for handling liquids. The test compounds were added with a Cybi-Well equipped with a 90 nl pin tool (CyBio).
Lit.: Solly S, Mundt S S, Zokian H J, Juy-Fang Ding G, Hermanowski-Vosatka A, Strulovici B and Zheng W. High-throughput screening of 11β-Hydroxysteroid dehydrogenase type 1 in scintillation proximity format. Assay Drug Dev Technol 2005; 3:377-384.

Sequence of human 11β-HSD1 microsome fraction (P28845 whole entry): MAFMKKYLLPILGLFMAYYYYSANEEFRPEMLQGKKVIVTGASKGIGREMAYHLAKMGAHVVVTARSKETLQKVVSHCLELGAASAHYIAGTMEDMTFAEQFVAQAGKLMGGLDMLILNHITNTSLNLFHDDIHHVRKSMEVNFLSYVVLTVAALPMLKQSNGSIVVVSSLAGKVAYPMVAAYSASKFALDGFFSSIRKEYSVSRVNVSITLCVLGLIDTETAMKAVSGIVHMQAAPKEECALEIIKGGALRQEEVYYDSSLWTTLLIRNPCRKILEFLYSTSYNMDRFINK

IC50 [µM]	SMILES
0.037	C[C@H](NC1=NS(=O)(=O)C(Cc2ccc(C3CCN(CCO)CC3)cc2)C(C)(C)O1)c1ccccc1F (stereo partly drawn) [Example 37, 2-[4-(4-{2-[(S)-1-(2-fluorophenyl)-ethylamino]-6,6-dimethyl-4,4-dioxo-5,6-dihydro-4H-4lambda6-[1,4,3]oxathiazin-5-ylmethyl}-phenyl)-piperidin-1-yl]-ethanol]
0.032	CC1(C)OC(N[C@@H](CCO)c2ccccc2F)=NS(=O)(=O)[C@@H]1Cc1ccc(C2CCN(C3CC3)CC2)cc1 [Example 41, (S)-3-{(R)-5-[4-(1-Cyclopropyl-piperidin-4-yl)-benzyl]-6,6-dimethyl-4,4-dioxo-5,6-dihydro-4H-4lambda6-[1,4,3]oxathiazin-2-ylamino}-3-(2-fluoro-phenyl)-propan-1-ol]
0.005	CC1(C)OC(N[C@@H](CCO)c2ccccc2F)=NS(=O)(=O)[C@H]1Cc1ccc(C2CCN(C3CC3)CC2)cc1 [Example 42, (S)-3-{(S)-5-[4-(1-Cyclopropyl-piperidin-4-yl)-benzyl]-6,6-dimethyl-4,4-dioxo-5,6-dihydro-4H-4lambda6-[1,4,3]oxathiazin-2-ylamino}-3-(2-fluoro-phenyl)-propan-1-ol]
0.011	C[C@H](NC1=NS(=O)(=O)C(Cc2ccc(C3CCN(C4CC4)CC3)cc2)C(C)(C)O1)c1ccccc1F (stereo partly drawn) [Example 43, {5-[4-(1-Cyclopropyl-piperidin-4-yl)-benzyl]-6,6-dimethyl-4,4-dioxo-5,6-dihydro-4H-4lambda6-[1,4,3]oxathiazin-2-yl}-[(S)-1-(2-fluorophenyl)-ethyl]-amine]
0.052	C[C@H](NC1=NS(=O)(=O)[C@H](Cc2ccc(C3CCN(C)CC3)cc2)C(C)(C)O1)c1ccccc1F [Example 50]
0.006	C[C@H](NC1=NS(=O)(=O)[C@@H](Cc2ccc(C3CCN(C)CC3)cc2)C(C)(C)O1)c1ccccc1F [Example 51]
0.009	C[C@H](NC1=NS(=O)(=O)[C@@H](Cc2ccc(C3CCN(C4COC4)CC3)cc2)C(C)(C)O1)c1ccccc1F [Example 53, {(S)-6,6-Dimethyl-5-[4-(1-oxetan-3-yl-piperidin-4-yl)-benzyl]-4,4-dioxo-5,6-dihydro-4H-4lambda6-[1,4,3]oxathiazin-2-yl}-[(S)-1-(2-fluorophenyl)-ethyl]-amine]
0.024	C[C@H](NC1=NS(=O)(=O)C(Cc2ccc(C3CCN(C4COC4)CC3)nc2)C(C)(C)O1)c1ccccc1F (stereo partly drawn) [Example 56, [6,6-Dimethyl-5-(1′-oxetan-3-yl-1′,2′,3′,4′,5′,6′-hexahydro-[2,4′]bipyridinyl-5-ylmethyl)-4,4-dioxo-5,6-dihydro-4H-4lambda6-[1,4,3]oxathiazin-2-yl]-[(S)-1-(2-fluorophenyl)-ethyl]-amine]

Further lines, the molecule ahead of its results:

SMILES	IC50 [µM]
CC1(C)OC(N[C@@H](CCO)c2ccccc2F)=NS(=O)(=O)C1Cc1ccc(C2CCN(CC3CC3)CC2)cc1 (stereo partly drawn) [Example 30, (S)-3-{5-[4-(1-Cyclopropylmethyl-piperidin-4-yl)-benzyl]-6,6-dimethyl-4,4-dioxo-5,6-dihydro-4H-4lambda6-[1,4,3]oxathiazin-2-ylamino}-3-(2-fluoro-phenyl)-propan-1-ol]	0.029
CC1(C)OC(N[C@@H](CCO)c2ccccc2F)=NS(=O)(=O)C1Cc1ccc(CCCN2CCOCC2)cc1 (stereo partly shown) [Example 31]	0.017
CN(C)CCCc1ccc(CC2C(C)(C)OC(N[C@@H](CCO)c3ccccc3F)=NS2(=O)=O)cc1 (stereo partly drawn) [Example 32, (S)-3-{5-[4-(3-Dimethylamino-propyl)-benzyl]-6,6-dimethyl-4,4-dioxo-5,6-dihydro-4H-4lambda6-[1,4,3]oxathiazin-2-ylamino}-3-(2-fluorophenyl)-propan-1-ol]	0.032
CNCCCc1ccc(CC2C(C)(C)OC(N[C@@H](CCO)c3ccccc3F)=NS2(=O)=O)cc1 (stereo partly drawn) [Example 33, (S)-3-{6,6-Dimethyl-5-[4-(3-methylamino-propyl)-benzyl]-4,4-dioxo-5,6-dihydro-4H-4lambda6-[1,4,3]oxathiazin-2-ylamino}-3-(2-fluorophenyl)-propan-1-ol]	0.03
CC1(C)OC(N[C@@H](CCO)c2ccccc2F)=NS(=O)(=O)[C@@H]1Cc1ccc(C2CCNCC2)cc1 [Example 34, (S)-3-[(R)-6,6-Dimethyl-4,4-dioxo-5-(4-piperidin-4-yl-benzyl)-5,6-dihydro-4H-4lambda6-[1,4,3]oxathiazin-2-ylamino]-3-(2-fluorophenyl)-propan-1-ol]	0.008
CC1(C)OC(N[C@@H](CCO)c2ccccc2F)=NS(=O)(=O)[C@H]1Cc1ccc(C2CCNCC2)cc1 [Example 35, (S)-3-[(S)-6,6-Dimethyl-4,4-dioxo-5-(4-piperidin-4-yl-benzyl)-5,6-dihydro-4H-4lambda6-[1,4,3]oxathiazin-2-ylamino]-3-(2-fluorophenyl)-propan-1-ol]	0.011
CN(CCO)CCCc1ccc(CC2C(C)(C)OC(N[C@@H](CCO)c3ccccc3F)=NS2(=O)=O)cc1 (stereo partly shown) [Example 36]	0.038
C[C@H](NC1=NS(=O)(=O)C(Cc2ccc(C3CCNCC3)cc2)C(C)(C)O1)c1ccccc1F (stereo partly drawn) [Example 38, [6,6-Dimethyl-4,4-dioxo-5-(4-piperidin-4-yl-benzyl)-5,6-dihydro-4H-4lambda6-[1,4,3]oxathiazin-2-yl]-[(S)-1-(2-fluorophenyl)-ethyl]-amine]	0.007
C[C@H](NC1=NS(=O)(=O)C(Cc2ccc(N3CCN(C(C)(C)C)CC3)cc2)C(C)(C)O1)c1ccccc1F (stereo partly drawn) [Example 39, {5-[4-(4-tert-Butyl-piperazin-1-yl)-benzyl]-6,6-dimethyl-4,4-dioxo-5,6-dihydro-4H-4lambda6-[1,4,3]oxathiazin-2-yl}-[(S)-1-(2-fluorophenyl)-ethyl]-amine]	0.017
COCCN1CCC(c2ccc(CC3C(C)(C)OC(N[C@@H](C)c4ccccc4F)=NS3(=O)=O)cc2)CC1 (stereo partly drawn) [Example 40, [(S)-1-(2-fluorophenyl)-ethyl]-(5-{4-[1-(2-methoxy-ethyl)-piperidin-4-yl]-benzyl}-6,6-dimethyl-4,4-dioxo-5,6-dihydro-4H-4lambda6-[1,4,3]oxathiazin-2-yl)-amine]	0.025
COC(=O)N1CCC(c2ccc(CC3C(C)(C)OC(N[C@@H](C)c4ccccc4F)=NS3(=O)=O)cn2)CC1 (stereo partly drawn) [Example 44, 5-{2-[(S)-1-(2-fluorophenyl)-ethylamino]-6,6-dimethyl-4,4-dioxo-5,6-dihydro-4H-4lambda6-[1,4,3]oxathiazin-5-ylmethyl}-3′,4′,5′,6′-tetrahydro-2′H-[2,4′]bipyridinyl-1′-carboxylic acid methyl ester]	0.005
C[C@H](NC1=NS(=O)(=O)[C@H](Cc2ccc(N3CCNCC3)cc2)C(C)(C)O1)c1ccccc1F [Example 45, [(R)-6,6-Dimethyl-4,4-dioxo-5-(4-piperazin-1-yl-benzyl)-5,6-dihydro-4H-4lambda6-[1,4,3]oxathiazin-2-yl]-[(S)-1-(2-fluorophenyl)-ethyl]-amine]	0.044
C[C@H](NC1=NS(=O)(=O)[C@H](Cc2ccc(NCCN(C)C)cc2)C(C)(C)O1)c1ccccc1F [Example 52, N-(4-{(R)-2-[(S)-1-(2-fluorophenyl)-ethylamino]-dimethyl-4,4-dioxo-5,6-dihydro-4H-4lambda6-[1,4,3]oxathiazin-5-ylmethyl}-phenyl)-N′,N′,- dimethyl-ethane-1,2-diamine]	0.062
C[C@H](NC1=NS(=O)(=O)[C@@H](Cc2ccc(OCC(C)(C)N)cc2)C(C)(C)O1)c1ccccc1F [Example 55, {(S)-5-[4-(2-Amino-2-methyl-propoxy)-benzyl]-6,6-dimethyl-4,4-dioxo-5,6-dihydro-4H-4lambda6-[1,4,3]oxathiazin-2-yl}-[(S)-1-(2-fluorophenyl)-ethyl]-amine]	0.008
